The numbers were not newly measured in US20250009631A1, “METHOD OF NAIL STRENGTHENING WITH A COMPLEX MICHAEL ADDITION TREATMENT COMPOSITION” (Wella Operations US, LLC, priority 2023, published 2025), which cites them from elsewhere.

SMILES strings stand for the structures. Like-named read-outs stand apart in the source and are kept apart here.

For this data set the following is noted: nail plate.

Consider `c1ccncc1` [pyridine], for which the permeability coefficient result runs as follows: (pH 2) “at least some permeation”; (pH 7.4) “high permeation coefficient”.
